A short description of this assay: fervescence activity by intravenous injection (rising of body temperature), 1 mg/kg. The class given is in vivo, Wister male rats. Conditions: 1 mg/kg intravenous, urethane-anesthetized rats. As to the method:
fervescence activity by intravenous injection Test animals were Wister male rats (8 weeks old) weighing 200±10 g. The rats were applied to anesthesia by intraperitoneal injection of 1.25 g/kg of urethane. Each test drug was dissolved into ethyl alcohol. The ethyl alcohol solution was diluted with Ringer's solution at least 50 times just before use and 1 mg/kg of the each test drug was intravenously administered. Body temperature was measured in the same manner as in Example 1. Ringer's solution containing ethyl alcohol was administered as control. Rising of body temperature is shown by the rising degree (°C.) from the temperature before administration.

For `CCCCC[C@H](O)/C=C/[C@H]1[C@H](O)CC(=O)[C@@H]1C/C=C\CCCC(=O)O` [compound 58], the “Rising of Body Temperature” value is “+0.7 °C”. For the compound `CCCCCC(=O)CC[C@H]1[C@H](O)CC(=O)[C@@H]1C/C=C\CCCC(=O)OCCO` [compound 28], the “Rising of Body Temperature” value was “+0.4 °C”. Under `COC(=O)CCC/C=C\C[C@H]1C(=O)C[C@@H](O)[C@@H]1CCC(=O)CCCCC=C(C)C` [compound 52] stands “+0.2 °C”; under `CCCCCC(F)C(=O)CC[C@H]1[C@H](O)CC(=O)[C@@H]1C/C=C\CCCC(=O)OC` (stereo partly shown) [compound 41], “+0.8 °C”. `CCCCC(C)C(=O)CC[C@H]1[C@H](O)CC(=O)[C@@H]1C/C=C\CCCC(=O)OC` (stereo partly shown) [compound 32]: the “Rising of Body Temperature” value was “+1.4 °C”. Regarding `CCCCCC(=O)CC[C@H]1[C@H](O)CC(=O)[C@@H]1CCCCC=CC(=O)OC` [compound 4], the “Rising of Body Temperature” value was “+0.8 °C”. Under `CCCCCC(=O)CC[C@H]1[C@H](O)CC(=O)[C@@H]1CC(=O)CCCCC(=O)OCC` (relative stereo) [compound 9] stands “+0.7 °C”; under `CCCCCC(=O)CC[C@H]1[C@H](O)CC(=O)[C@@H]1CC(=O)CCCCC(=O)OCCCC` [compound 10], “+0.2 °C”; under `CCCCC(F)C(=O)CC[C@H]1[C@H](O)CC(=O)[C@@H]1CC(=O)CCCCC(=O)OCC` (stereo partly shown) [compound 14], “+1.0 °C”.

Take `CCCCC(C)(C)C(=O)CC[C@H]1[C@H](O)CC(=O)[C@@H]1C/C=C\CCCC(=O)OC` [compound 35]: the “Rising of Body Temperature” value is “+1.0 °C”. Turning to `COC(=O)CCCCC(=O)C[C@H]1C(=O)C[C@@H](CO)[C@@H]1CCC(=O)CCCC(C)C` [compound 17], the “Rising of Body Temperature” value is “+0.4 °C”.

`CCCCC(C)(C)C(=O)CC[C@H]1[C@H](O)CC(=O)[C@@H]1CC(=O)CCCCC(=O)OCC` [compound 13]: the “Rising of Body Temperature” value is “+1.1 °C”. On to `CCCCC(F)C(=O)CC[C@H]1[C@H](C)CC(=O)[C@@H]1C/C=C\CCCC(=O)OCC` (stereo partly shown) [compound 42], for which the “Rising of Body Temperature” value was “+1.4 °C”. With `CCCCCC(=O)CC[C@H]1[C@H](C)CC(=O)[C@@H]1C/C=C\CCCC(=O)OCC` [compound 43], the “Rising of Body Temperature” value was “+0.2 °C”. The result for `CCCCC(C)C(=O)CC[C@H]1[C@H](O)CC(=O)[C@@H]1CC(=O)CCCCC(=O)OC` (stereo partly shown) [compound 11] reads “+1.5 °C”; that for `CCCCCCCC(=O)CC[C@H]1[C@H](O)CC(=O)[C@@H]1C/C=C\CCCC(=O)OC` [compound 53], “+0.5 °C”; that for `CCCCCC(=O)CC[C@H]1[C@H](O)CC(=O)[C@@H]1CCCCC=CC(=O)O` [compound 3], 0 °C. `CCCCCCCC(=O)CC[C@H]1[C@H](O)CC(=O)[C@@H]1CCCCCCC(=O)OC` [compound 5]: the “Rising of Body Temperature” value was “+0.4 °C”.

As to `COCCCCCC(=O)CC[C@H]1[C@H](O)CC(=O)[C@@H]1C/C=C\CC(C)CC(=O)OC` (stereo partly shown) [compound 49], the “Rising of Body Temperature” value is “+0.2 °C”.

With `CCCCC(C)C(=O)CC[C@H]1[C@H](O)CC(=O)[C@@H]1CC(=O)CCCCC(=O)OCC` (stereo partly shown) [compound 12], the “Rising of Body Temperature” value is “+0.9 °C”.

In the case of `COCCCCC(C)(C)C(=O)CC[C@H]1[C@H](O)CC(=O)[C@@H]1C/C=C\CCCC(=O)OC` [compound 50], the “Rising of Body Temperature” value was “+0.2 °C”. In the case of `CCOC(=O)CCC/C=C\C[C@H]1C(=O)C[C@@H](O)[C@@H]1CCC(=O)CCCC(C)C` [compound 46], the “Rising of Body Temperature” value is “+0.6 °C”. The result for `CCCCC(C)C(=O)CC[C@H]1[C@H](O)CC(=O)[C@@H]1C/C=C\CCCC(=O)OCC` (stereo partly shown) [compound 33] reads “+0.9 °C”; that for `CCCCC(F)C(=O)/C=C/[C@H]1[C@H](O)CC(=O)[C@@H]1C/C=C\CCCC(=O)OC` (stereo partly shown) [compound 56], “+1.0 °C”; that for `CCCCC(C)(C)C(=O)CC[C@H]1[C@H](O)CC(=O)[C@@H]1C/C=C\CCCC(=O)OCC` [compound 36], “+0.6 °C”. As to `CCCCC(O)C(=O)CC[C@H]1[C@H](O)CC(=O)[C@@H]1C/C=C\CCCC(=O)OCC` (stereo partly shown) [compound 37], the “Rising of Body Temperature” value was “+0.2 °C”. On to `CCCCCC(=O)CC[C@H]1[C@H](O)CC(=O)[C@@H]1C/C=C\CC=CC(=O)OC` [compound 29], for which the “Rising of Body Temperature” value was “+1.0 °C”. Under `CCCCC(F)C(=O)CC[C@H]1[C@H](C)CC(=O)[C@@H]1CC(=O)CCCCC(=O)OCC` (stereo partly shown) [compound 21] stands “+1.1 °C”; under `CC(C)=CCCCCC(=O)CC[C@H]1[C@H](O)CC(=O)[C@@H]1C/C=C\CCCC(=O)O` [compound 51], “+0.2 °C”; under `COCCCCCC(=O)CC[C@H]1[C@H](O)CC(=O)[C@@H]1C/C=C\CCCC(=O)OC` [compound 47], “+0.3 °C”. The result for `CCCCCCCC(=O)CC[C@H]1[C@H](O)CC(=O)[C@@H]1C/C=C\CCCC(=O)OCC` [compound 54] reads “+0.2 °C”. Regarding `CCCCC(F)C(=O)CC[C@H]1[C@H](O)CC(=O)[C@@H]1C/C=C\CCCC(=O)OCC` (stereo partly shown) [compound 40], the “Rising of Body Temperature” value was “+1.4 °C”. Under `CCCCC[C@H](O)/C=C/[C@H]1[C@H](O)CC(=O)[C@@H]1CCCCCCC(=O)O` [compound 57] stands 0 °C; under `CCCCCC(=O)CC[C@H]1[C@H](O)CC(=O)[C@@H]1C/C=C\CCCC(=O)OCc1ccccc1` [compound 27], “+0.3 °C”; under `CCCCCC(=O)CC[C@H]1[C@H](O)CC(=O)[C@@H]1C/C=C\CC(C)CC(=O)OCC` (stereo partly shown) [compound 31], “+1.0 °C”. Regarding `CCCCCC(=O)CC[C@H]1[C@H](C)CC(=O)[C@@H]1CC(=O)CCCCC(=O)OC` [compound 19], the “Rising of Body Temperature” value was “+1.0 °C”. Under `CCC[C@H](C)CC(=O)CC[C@H]1[C@H](O)CC(=O)[C@@H]1C/C=C\CCCC(=O)OC` [compound 44] stands “+0.2 °C”; under `COCCCCCC(=O)CC[C@H]1[C@H](O)CC(=O)[C@@H]1C/C=C\CC=CC(=O)OC` [compound 48], “+0.2 °C”; under `CCCCC(F)C(=O)CC[C@H]1[C@H](O)CC(=O)[C@@H]1C/C=C\CCCC(=O)OC` (stereo partly shown) [compound 39], “+0.9 °C”. Turning to `CCCCC(F)C(=O)CC[C@H]1[C@H](O)CC(=O)[C@@H]1C/C=C\CCCC(=O)O` (stereo partly shown) [compound 38], the “Rising of Body Temperature” value is “+0.3 °C”.

Consider `CCCCCCCC(=O)CC[C@H]1[C@H](C)CC(=O)[C@@H]1C/C=C\CCCC(=O)OC` [compound 55], for which the “Rising of Body Temperature” value was “+0.2 °C”. In the case of `CCCCCC(=O)CC[C@H]1[C@H](O)CC(=O)[C@@H]1C/C=C\CC(C)CC(=O)OC` (stereo partly shown) [compound 30], the “Rising of Body Temperature” value was “+1.7 °C”. Turning to `CCCCC(C)C(=O)CC[C@H]1[C@H](O)CC(=O)[C@@H]1C/C=C\CC(C)CC(=O)OC` (stereo partly shown) [compound 34], the “Rising of Body Temperature” value was “+1.0 °C”.
